Assay results: the SangsterLogP compilation

Assay: method code SF-HPLC, from Li, N. Y., Li, Y., & Gorrod, J. W. (1992). Determination of partition coefficients and ionisation constants of(S)(-)-nicotine and certain metabolites. Med. Sci. Res., 20(23)901-902.

| SMILES | logD (pH 7.4) | logD (pH 12.0) | other results |
| --- | --- | --- | --- |
| CN1C(=O)C(O)CC1c1cccnc1 (centres undefined) | -1.22 |  |  |
| O=C1CC[C@@H](c2cccnc2)N1 |  | -0.4 |  |
| CN1C(=O)CCC1c1ccc[n+]([O-])c1 (centres undefined) | -2.54 |  |  |
| O=C1CCC(c2ccc[n+]([O-])c2)N1 (centres undefined) |  | -1.01 |  |
| O=C(O)CCC(=O)c1cccnc1 |  |  | logD (pH 2.0): -1.06 |
| CNC(=O)CCC(=O)c1cccnc1 | -0.13 |  |  |
| O=C(O)Cc1cccnc1 |  |  | logD (pH 2.0): -2.42 |
| CN1C(=O)CC[C@H]1c1cccnc1 | 0.07 |  |  |
| CN1C(=O)CCC1(O)c1cccnc1 (centres undefined) |  | -0.57 |  |
